According to patent US12427134B2, “Methods of reducing the risk of cardiovascular events in a subject with atrial fibrillation and/or atrial flutter” (priority 2019, dated 2025):

What was measured:
[1] = tested on: hypertriglyceridemic patients with cardiovascular disease or at high risk for cardiovascular disease; assay: REDUCE-IT: post hoc control group response analyses (placebo patients with biomarker increase vs no change/decrease); format: in vivo, human
Source text: The objective of the following example was to perform a control group analysis of the ischemic events in patients from the REDUCE-IT trial, as described in Example 1. The study focused on exploring if outcomes were affected by possible malabsorption. If mineral oil in the placebo might have negatively affected statin absorption in some patients, this could have contributed to differences in outcomes between the groups.

[2] = tested on: patients receiving icosapent ethyl therapy; assay: Postmarket safety analysis of icosapent ethyl (VASCEPA); format: in vivo, human
Source text: Over 320,000 patients are currently receiving icosapent ethyl (referenced interchangeably with AMR101 or VASCEPA®) therapy. With over 7 years of postmarket experience, there have been no signals necessitating a label change and no actions taken for safety reasons. Of the patients undergoing treatment with icosapent ethyl, a total of 1,204 unique adverse events (AEs) have been reported. However, there have been no signals of atrial fibrillation and flutter identified in the postmarket reports.

[3] = tested on: hypertriglyceridemic patients with cardiovascular disease or at high risk for cardiovascular disease; assay: REDUCE-IT: bleeding-related adverse events (serious and any, by category, preferred term, antithrombotic medication, fatal association); format: in vivo
Source text: Adverse Events of Special Interest: Bleeding-related adverse events, glucose control (fasting blood glucose and HbA1c), and indicators of hepatic disorders (e.g., ALT or AST increases >3×ULN, total bilirubin increases of ≥2×ULN) were summarized separately and compared between treatment groups.
Due to the convergence of clinical events shortly before a patient's death, direct causality of an individual bleeding event with death cannot always be determined. Bleeding-related clinical events (i.e., TEAEs, SAEs, or positively adjudicated endpoints) that occurred proximal to death (per site Investigator, CEC, or Sponsor medical assessment) are presented in Table 82 and occurred in 23 (0.6%) patients in the AMR101 group and 34 (0.8%) patients in the placebo group, with no statistically significant difference between treatment groups (p=0.18). Sponsor medical assessment classified 20 (0.5%) patients in the AMR101 group and 23 (0.6%) patients in the placebo group as having a bleeding event that likely contributed to death, with no statistically significant difference between treatment groups (p=0.76). […] None of these 57 deaths were associated with study drug per Investigator assessment; one bleeding event in each treatment group was considered possibly related to study drug per Investigator assessment.
A summary of baseline or on-treatment anti-thrombic medication use by type in patients with serious bleeding events for the ITT population is provided in Tables 97A-97D.

CC/C=C\C/C=C\C/C=C\C/C=C\C/C=C\CCCC(=O)OCC [AMR101, eicosapentaenoic acid ethyl ester]
Key secondary endpoint, HR AMR101 group versus placebo patients with an increase in LDL-C ([1]; LDL-C at one year): 0.80 | Key secondary endpoint, HR AMR101 group versus placebo patients with no change or a decrease in LDL-C ([1]; LDL-C at one year): 0.74 | Primary endpoint, HR AMR101 group versus placebo patients with an increase in LDL-C ([1]; LDL-C at one year): 0.79 | Primary endpoint, HR AMR101 group versus placebo patients with no change or a decrease in LDL-C ([1]; LDL-C at one year): 0.79 | Key secondary endpoint, HR AMR101 group versus placebo patients with an increase in hsCRP ([1]; hsCRP at two years): 0.83 | Key secondary endpoint, HR AMR101 group versus placebo patients with no change or a decrease in hsCRP ([1]; hsCRP at two years): 0.85 | Primary endpoint, HR AMR101 group versus placebo patients with an increase in hsCRP ([1]; hsCRP at two years): 0.79 | Primary endpoint, HR AMR101 group versus placebo patients with no change or a decrease in hsCRP ([1]; hsCRP at two years): 0.83 | Individual serious AEs ([2]; human, in vivo): 69 | Serious and unexpected AE reports ([2]; human, in vivo): 48 | Unique adverse events (AEs) reported ([2]; human, in vivo): 1,204 | Unique nonserious AEs ([2]; human, in vivo): 1,156 | Reports with fatal outcomes ([2]; postmarket): Four | Bleeding event that did not likely contribute to death (Sponsor medical assessment), patients ([3]; Safety population): 3 (0.1%) n (%) | Bleeding event that likely contributed to death (Sponsor medical assessment), patients ([3]; Safety population): 20 (0.5%) n (%) | Bleeding-related clinical events that occurred proximal to death, patients ([3]; Safety population): 23 (0.6%) n (%) | Fatal bleeding events ([3]; Safety population): no fatal bleeding events | Bleeding Not Likely Contributing to a Fatal Event, % ([3]; Safety population N = 4089, P-value 0.06): (0.1) % | Any Bleeding with a Possible Fatal Association, % ([3]; Safety population N = 4089, P-value 0.18): (0.6) % | Bleeding Likely Contributing to a Fatal Event, % ([3]; Safety population N = 4089, P-value 0.76): (0.5) % | Fatal bleeding events ([3]; Safety population, listed as icosapent ethyl): no fatal bleeding observed in either group | Bleeding TEAEs, % ([3]; human, in vivo): (11.8) % | Bleeding-related disorders (bleeding TEAEs), patients ([3]; human, in vivo): 11.8% | Patients with any serious bleeding TEAE, % patients ([3]; human, in vivo): (2.7) % | Patients with any serious bleeding TEAE, n patients ([3]; human, in vivo): 111 | Patients with serious CNS bleeding, % patients ([3]; human, in vivo): (0.3) % | Patients with serious CNS bleeding, n patients ([3]; human, in vivo): 14 | Patients with serious Gl bleeding, % patients ([3]; human, in vivo): (1.5) % | Patients with serious Gl bleeding, n patients ([3]; human, in vivo): 62 | Patients with serious other bleeding, % patients ([3]; human, in vivo): (1.0) % | Patients with serious other bleeding, n patients ([3]; human, in vivo): 41 | Serious GI hemorrhage, patients ([3]; human, in vivo): 0.6% | Serious bleeding TEAE: Aortic Aneurysm Rupture ([3]; human, in vivo): 1 (0.0%) n (%) | Serious bleeding TEAE: Bleeding related disorders ([3]; human, in vivo): 111 (2.7%) n (%) | Serious bleeding TEAE: Brain Contusion ([3]; human, in vivo): 0 (0.0%) n (%) | Serious bleeding TEAE: Catheter Site Hemorrhage ([3]; human, in vivo): 0 (0.0%) n (%) | Serious bleeding TEAE: Central nervous system bleeding ([3]; human, in vivo): 14 (0.3%) n (%) | Serious bleeding TEAE: Cerebral Hemorrhage ([3]; human, in vivo): 0 (0.0%) n (%) | Serious bleeding TEAE: Cystitis Hemorrhagic ([3]; human, in vivo): 2 (0.0%) n (%) | Serious bleeding TEAE: Diverticulitis Intestinal Hemorrhagic ([3]; human, in vivo): 0 (0.0%) n (%) | Serious bleeding TEAE: Diverticulum Intestinal Hemorrhagic ([3]; human, in vivo): 3 (0.1%) n (%) | Serious bleeding TEAE: Duodenal Ulcer Hemorrhage ([3]; human, in vivo): 2 (0.0%) n (%) | Serious bleeding TEAE: Ecchymosis ([3]; human, in vivo): 1 (0.0%) n (%) | Serious bleeding TEAE: Epistaxis ([3]; human, in vivo): 7 (0.2%) n (%) | Serious bleeding TEAE: Esophageal Hemorrhage ([3]; human, in vivo): 0 (0.0%) n (%) | Serious bleeding TEAE: Extravasation Blood ([3]; human, in vivo): 1 (0.0%) n (%) | Serious bleeding TEAE: Gastric Hemorrhage ([3]; human, in vivo): 1 (0.0%) n (%) | Serious bleeding TEAE: Gastric Ulcer Hemorrhage ([3]; human, in vivo): 3 (0.1%) n (%) | Serious bleeding TEAE: Gastrointestinal Angiodysplasia Hemorrhagic ([3]; human, in vivo): 1 (0.0%) n (%) | Serious bleeding TEAE: Gastrointestinal bleeding ([3]; human, in vivo): 62 (1.5%) n (%) | Serious bleeding TEAE: Genital Hemorrhage ([3]; human, in vivo): 1 (0.0%) n (%) | Serious bleeding TEAE: Hemarthrosis ([3]; human, in vivo): 0 (0.0%) n (%) | Serious bleeding TEAE: Hematemesis ([3]; human, in vivo): 3 (0.1%) n (%) | Serious bleeding TEAE: Hematochezia ([3]; human, in vivo): 1 (0.0%) n (%) | Serious bleeding TEAE: Hematoma ([3]; human, in vivo): 1 (0.0%) n (%) | Serious bleeding TEAE: Hemoptysis ([3]; human, in vivo): 1 (0.0%) n (%) | Serious bleeding TEAE: Hemorrhagic Anemia ([3]; human, in vivo): 4 (0.1%) n (%) | Serious bleeding TEAE: Hemorrhagic Duodenitis ([3]; human, in vivo): 0 (0.0%) n (%) | Serious bleeding TEAE: Hemorrhagic Transformation Stroke ([3]; human, in vivo): 1 (0.0%) n (%) | Serious bleeding TEAE: Hemorrhoidal Hemorrhage ([3]; human, in vivo): 3 (0.1%) n (%) | Serious bleeding TEAE: Hemothorax ([3]; human, in vivo): 1 (0.0%) n (%) | Serious bleeding TEAE: Immune Thrombocytopenic Purpura ([3]; human, in vivo): 0 (0.0%) n (%) | Serious bleeding TEAE: Intra-Abdominal Hemorrhage ([3]; human, in vivo): 1 (0.0%) n (%) | Serious bleeding TEAE: Intracranial Hemorrhage ([3]; human, in vivo): 0 (0.0%) n (%) | Serious bleeding TEAE: Large Intestinal Hemorrhage ([3]; human, in vivo): 1 (0.0%) n (%) | Serious bleeding TEAE: Lower Gastrointestinal Hemorrhage ([3]; human, in vivo): 5 (0.1%) n (%) | Serious bleeding TEAE: Mallory-Weiss Syndrome ([3]; human, in vivo): 1 (0.0%) n (%) | Serious bleeding TEAE: Melaena ([3]; human, in vivo): 3 (0.1%) n (%) | Serious bleeding TEAE: Menorrhagia ([3]; human, in vivo): 1 (0.0%) n (%) | Serious bleeding TEAE: Mouth Hemorrhage ([3]; human, in vivo): 0 (0.0%) n (%) | Serious bleeding TEAE: Other bleeding ([3]; human, in vivo): 41 (1.0%) n (%) | Serious bleeding TEAE: Pancreatitis Hemorrhagic ([3]; human, in vivo): 1 (0.0%) n (%) | Serious bleeding TEAE: Peptic Ulcer Hemorrhage ([3]; human, in vivo): 1 (0.0%) n (%) | Serious bleeding TEAE: Pericardial Hemorrhage ([3]; human, in vivo): 0 (0.0%) n (%) | Serious bleeding TEAE: Post Procedural Hematoma ([3]; human, in vivo): 1 (0.0%) n (%) | Serious bleeding TEAE: Post Procedural Hematuria ([3]; human, in vivo): 0 (0.0%) n (%) | Serious bleeding TEAE: Post Procedural Hemorrhage ([3]; human, in vivo): 5 (0.1%) n (%) | Serious bleeding TEAE: Renal Hemorrhage ([3]; human, in vivo): 0 (0.0%) n (%) | Serious bleeding TEAE: Retinal Hemorrhage ([3]; human, in vivo): 1 (0.0%) n (%) | Serious bleeding TEAE: Retroperitoneal Hematoma ([3]; human, in vivo): 0 (0.0%) n (%) | Serious bleeding TEAE: Retroperitoneal Hemorrhage ([3]; human, in vivo): 1 (0.0%) n (%) | Serious bleeding TEAE: Shock Hemorrhagic ([3]; human, in vivo): 2 (0.0%) n (%) | Serious bleeding TEAE: Subarachnoid Hemorrhage ([3]; human, in vivo): 2 (0.0%) n (%) | Serious bleeding TEAE: Subdural Hemorrhage ([3]; human, in vivo): 2 (0.0%) n (%) | Serious bleeding TEAE: Traumatic Hematoma ([3]; human, in vivo): 2 (0.0%) n (%) | Serious bleeding TEAE: Traumatic Intracranial Hemorrhage ([3]; human, in vivo): 0 (0.0%) n (%) | Serious bleeding TEAE: Ulcer Hemorrhage ([3]; human, in vivo): 1 (0.0%) n (%) | Serious bleeding TEAE: Upper Gastrointestinal Hemorrhage ([3]; human, in vivo): 3 (0.1%) n (%) | Serious bleeding TEAE: Urinary Bladder Hemorrhage ([3]; human, in vivo): 1 (0.0%) n (%) | Serious bleeding TEAEs, % ([3]; human, in vivo): (2.7) % | Serious bleeding TEAEs, patients ([3]; human, in vivo): 2.7% | Serious bleeding adverse event - Epistaxis, % patients ([3]; human, in vivo): (0.2) % | Serious bleeding adverse event - Epistaxis, n patients ([3]; human, in vivo): 7 | Serious bleeding adverse event - Gl hemorrhage, % patients ([3]; human, in vivo): (0.6) % | Serious bleeding adverse event - Gl hemorrhage, n patients ([3]; human, in vivo): 26 | Serious bleeding adverse event - Hematuria, % patients ([3]; human, in vivo): (0.2) % | Serious bleeding adverse event - Hematuria, n patients ([3]; human, in vivo): 8 | Serious bleeding adverse event - Rectal hemorrhage, % patients ([3]; human, in vivo): (0.2) % | Serious bleeding adverse event - Rectal hemorrhage, n patients ([3]; human, in vivo): 10 | Serious bleeding adverse event - Subdural hematoma, % patients ([3]; human, in vivo): (0.2) % | Serious bleeding adverse event - Subdural hematoma, n patients ([3]; human, in vivo): 9 | Serious central nervous system bleeding, patients ([3]; human, in vivo): 0.3% | Serious gastrointestinal bleeding, patients ([3]; human, in vivo): 1.5% | TEAE of special interest: Bleeding-related disorders, % ([3]; human, in vivo): (11.8) % | TEAE of special interest: Central nervous system bleeding, % ([3]; human, in vivo): (0.5) % | TEAE of special interest: Gastrointestinal bleeding, % ([3]; human, in vivo): (3.1) % | TEAE of special interest: Other bleeding, % ([3]; human, in vivo): (9.2) % | Serious bleeding TEAE: Gastrointestinal Hemorrhage ([3]; human, in vivo, 4.9 years): 26 (0.6%) n (%) | Serious bleeding TEAE: Hematuria ([3]; human, in vivo, 4.9 years): 8 (0.2%) n (%) | Serious bleeding TEAE: Rectal Hemorrhage ([3]; human, in vivo, 4.9 years): 10 (0.2%) n (%) | Serious bleeding TEAE: Subdural Hematoma ([3]; human, in vivo, 4.9 years): 9 (0.2%) n (%) | Patients with any bleeding/at risk ([3]; on treatment: Clopidogrel, ITT): 124/951
